Results taken from patent US11718628B2, “SREBP inhibitors comprising a 6-membered central ring” (Capulus Therapeutics, LLC, priority 2018, dated 2023).
Where two headings read alike, the source gives them in different places.

How the values were obtained:
[1] = Plasma and liver compound levels in mice after oral administration; format: in vivo; settings: 30 mpk; for concentration at 6 h / concentration at 24 h: mouse, 30 mg/kg
Description: (§1) The pharmacodynamic properties of selected compounds were evaluated in mice. The animals were housed in cages with clean bedding, and maintained and monitored for good health in accordance with Test Facility SOPs and at the discretion of the laboratory animal veterinarian. Certified rodent diet was provided. Food and water was available ad libitum. Environmental controls for the animal room were set to maintain a temperature of 22° C. to 25° C., humidity of 40-70% RH, and a 12-hour light/[…]. Normal healthy animals certified by the attending veterinarian were selected and acclimatized for minimum three days prior to initiation of study. Animals were identified with body markings.
(§2) Aliquots of the compounds being evaluated were weighed and triturated with 0.5% methylcellulose (with the addition of 5% N-methyl pyrrolidone when required to remove clumping, as for Z-806) to an appropriate dose concentration. Vials were labeled with the information about study number, test item, concentration and date of preparation. A description of appearance of formulation was recorded (e.g., color, turbidity, etc.). The composition of formulation vehicle was recorded. An aliquot of each dose solution was taken before the dosing began and after dosing was finished, and stored at approximately −20° C. or below for subsequent analysis. The animals were dosed orally through oral gavage needle, and time of dosing was recorded.
After dosing, the mice were anesthetized using gaseous anesthesia. Blood samples were collected through a capillary, guided in retro-orbital plexus, at 6 h or at 24 h. Approximately 100 uL of blood was collected from each mouse, in pre-labeled tubes. The collected blood was stored on ice prior to centrifugation. Blood samples were then centrifuged within 1 hour of collection to separate plasma. Centrifugation was conducted at 2500×g for 15 minutes at 4° C. The plasma was separated and transferred to pre-labeled micro-centrifuge tubes and promptly frozen at −80±10° C. until bioanalysis.
(§3) Liver Collection at 6 h or 24 h: Immediately after blood withdrawal for pharmacokinetic evaluation (at 6 or at 24 h), liver tissue was collected without perfusion. Animals were euthanized using carbon dioxide gas in a CO2 chamber. The whole blood was drained by cutting the both side jugular vein and abdominal aorta. The liver was separated out. All the liver samples were divided in two parts. The first part (200 mg approx.) was snap frozen using liquid nitrogen as soon as possible. These samples were immediately transferred to −80° C. for storage. The remaining part was weighed and used for bioanalysis.

[2] = In vivo pharmacokinetic properties in rats (IV and PO); set-up: species or system male Sprague Dawley rats
Description: (§4) The in vivo pharmacokinetic properties of compounds by both intravenous and oral administration were evaluated in male Sprague Dawley rats or C57BL/6J mice.
(§5) Animals were housed in cages with clean bedding. Certified rodent diet was provided. Water was available ad libitum. Environmental controls for the animal room were set to maintain a temperature of 22° C. to 25° C., humidity of 40-70% RH, and a 12-hour light/12-hour dark cycle. Normal healthy animals certified by the attending veterinarian were selected and acclimatized for minimum three days prior to initiation of study.
Surgical Procedure for Jugular Vein Cannulation of Rats: Rats were anaesthetized with a single dose of ketamine 50 mg/kg i.p.+xylazine 6 mg/kg i.p. The right jugular vein was exposed, a loose ligature was placed caudally, and the cranial end of vein was ligated. A small incision was made between the ligatures into which the catheter (polyethylene 50 tubing of internal diameter 0.58 mm and outer diameter 0.96 mm) was inserted. The catheter was secured in place by tying the loose ligature around the catheterized vessel. A small incision was made in the scapular region to serve as the exit site of the catheter. The catheter was subcutaneously tunneled and exteriorized through scapular incision. A stay suture was placed in the scapular area. Patency was tested, and catheter was filled with a locking solution (heparinized saline) and sealed with a stainless steel plug. The incision was then sutured with sterile suturing material. Anti-septic solution was applied to the sutured site and animal was placed back in the home cage.
(§6) To evaluate pharmacokinetic properties of intravenous delivery, male Sprague Dawley rats were administered 2.00 mg compound/kg animal weight through the tail vein. The concentration of the compound in the plasma of the animals was evaluated at 0.083, 0.25, 0.5, 1, 2, 4, 8, 12 and 24 hr by taking blood samples from the cannulated jugular vein. For the C5Bl/6J mice, blood samples were collected through a capillary, guided in retro-orbital plexus.
To evaluate pharmacokinetic properties of oral delivery, rats (male Sprague Dawley rats) or mice (C5Bl/6J) were administered 10 mg compound/kg animal weight by mouth. The concentration of compound in the plasma of the animals was evaluated at 0.25, 0.5, 1, 2, 4, 6, 8, 12 and 24 hr by taking blood samples from the cannulated jugular vein (rats) or through a capillary, guided in retro-orbital plexus (mice).

[3] = Log D by octanol/aqueous buffer partitioning; format: physicochemical; settings: pH 7.4, 1-octanol/buffer
Description: The Log D of selected compounds was evaluated by octanol/aqueous buffer partitioning. 500 μL of organic phase (1-octanol) was added to each well of a 2 mL deep well plate, followed by 500 μL of buffer and 15 μL of test compound in DMSO (0.15 mM). The plate was vortexed for 10 seconds and incubated at room temperature for 1 hr on a plate shaker at 200 rpm. After incubation, the samples were allowed to equilibrate for 20 min and then centrifuged at 4000 rpm for 30 min for complete phase separation. The distribution of test compound in buffer and octanol phase was analyzed by HPLC-UV. Log D=Log (Area of Octanol/Area of Buffer).

[4] = In vivo pharmacokinetic properties in mice (IV and PO); set-up: species or system C57BL/6J mice; settings: mouse, in vivo; for Intravenous Delivery (IV) AUC0-last / Intravenous Delivery (IV) CL / Intravenous Delivery (IV) T1/2 / Intravenous Delivery (IV) Vd: 2 mg/kg; for Oral Administration (PO) AUC0-last / Oral Administration (PO) T1/2 / Oral Administration (PO) Tmax: 10 mg/kg
Description: as §4, §5, §6
[…] The concentration of compound in the plasma of the animals was evaluated at 0.25, 0.5, 1, 2, 4, 6, 8, 12 and 24 hr by taking blood samples from the cannulated jugular vein (rats) or through a capillary, guided in retro-orbital plexus (mice).

[5] = test system: liver gene expression (ACACA, ACLY, FASN, LSS, PNPLA3); experiment: Liver gene expression in mice after oral administration; format: in vivo; settings: 30 mpk, vs vehicle
Description: as §1, §2, §3
RNA Processing and Gene Expression Analysis: Liver Tissue RNA was harvested with the RNEasy kit and 20-100 ng used to synthesize cDNA with random primers following the manufacturer's protocol. Quantitative PCR was performed on 1 pg to 100 ng cDNA for the following genes: ACACA, ACLY, FASN, LSS, PNPLA3. Gene expression levels were determined using ΔΔCT method comparing treated to vehicle treated samples as a baseline, and fold change calculated. The average value for all 5 genes above was averaged and termed to Total Fold Change The results from this evaluation are presented in Table 8.

SMILES	Liver ng/mg (6 h) [1] [ng/mg]	Plasma ng/mL (6 h) [1] [ng/mL]	Liver ng/mg 24 h [1] [ng/mg]	Plasma ng/mL (24 h) [1] [ng/mL]	Intravenous Delivery (IV) CL ([2]; IV, 2 mg/kg) [mL/min/kg]	Intravenous Delivery (IV) T1/2 ([2]; IV, 2 mg/kg) [h]	Intravenous Delivery (IV) Vd ([2]; IV, 2 mg/kg) [L/kg]	% F (Bioavailability of oral delivery) ([2]; PO 10 mg/kg vs IV 2 mg/kg) [%]	Oral Administration (PO) AUC0-last ([2]; PO, 10 mg/kg)	Oral Administration (PO) T1/2 ([2]; PO, 10 mg/kg) [h]	Oral Administration (PO) Tmax ([2]; PO, 10 mg/kg) [h]	LogD [3]	% F (Bioavailability of oral delivery) [4] [%]	Intravenous Delivery (IV) AUC0-last [4] [ng·h/mL]	Intravenous Delivery (IV) CL [4] [mL/min/kg]	Intravenous Delivery (IV) T1/2 [4] [h]	Intravenous Delivery (IV) Vd [4] [L/kg]	Oral Administration (PO) AUC0-last [4] [ng·h/mL]	Total Gene FC Time (6 h) [5]	Total Gene FC Time (24 h) [5]	other results
CC(C)OC(=O)Nc1ccc(-c2cncc(-c3ccnc(C(C)(C)C)c3)c2)c(Cl)c1 [Compound Z-774]	>1000	100 to 1000	>1000	100 to 1000	15.7	5.92	7.97	5.8	604	3.74	0.333	4.12	16	1780	18.5	5.31	8.51	1380	++ (0.51-0.7509 = ++)	+++ (0-0.509 = +++)	Oral Administration (PO) T1/2 [4]: 6.79 h; Oral Administration (PO) Tmax [4]: 0.5 h
CC1(O)CCN(C(=O)c2ccc(-c3cncc(-c4ccnc(C(C)(C)C)c4)c3)c(Cl)c2)CC1 [Compound Z-780]	>1000	100 to 1000	>100	<100	16.7	1.14	1.64	29	2989	0.92	0.75	3.76	33	913	36.3	2.02	6.33	1510	+ (>0.751 = +)	++ (0.51-0.7509 = ++)	Oral Administration (PO) T1/2 [4]: 1.24 h; Oral Administration (PO) Tmax [4]: 0.25 h
CC(C)(O)c1cc(-c2cncc(-c3ccc(C(=O)N4CCC(O)CC4)cc3Cl)c2)ccn1 [Compound Z-796, (3-chloro-4-(2′-(2-hydroxypropan-2-yl)-[3,4′-bipyridin]-5-yl)phenyl)(4-hydroxypiperidin-1-yl)methanone]																			+ (>0.751 = +)	+ (>0.751 = +)	concentration at 6 h ([1]; liver, read-out: Liver ng/mg (6 h)): > 1e+06 ng/g; concentration at 24 h ([1]; liver, read-out: Liver ng/mg 24 h): < 100000 ng/g; concentration at 6 h ([1]; plasma, read-out: Plasma ng/mL (6 h)): 100 to 1000 ng/mL; concentration at 24 h ([1]; plasma, read-out: Plasma ng/mL (24 h)): < 100 ng/mL; AUC(0-t) ([2]; male, Sprague Dawley, rat, plasma, 10 mg/kg, heading: Oral Administration AUC0-last, PO, 10 mg/kg): 7140 ng·h/mL; AUC(0-t) ([2]; male, Sprague Dawley, rat, plasma, IV, 2 mg/kg, read-out: Intravenous Delivery (IV) AUC0-last): 3800 ng·h/mL; clearance ([2]; male, Sprague Dawley, rat, plasma, IV, 2 mg/kg, read-out: Intravenous Delivery (IV) CL): 8.78 mL/min/kg; half-life ([2]; male, Sprague Dawley, rat, plasma, IV, 2 mg/kg, read-out: Intravenous Delivery (IV) T1/2 (converted)): 3.08 h; Vd ([2]; male, Sprague Dawley, rat, plasma, IV, 2 mg/kg, read-out: Intravenous Delivery (IV) Vd): 2.37 L/kg; bioavailability ([2]; male, Sprague Dawley, rat, plasma, PO 10 mg/kg vs IV 2 mg/kg, read-out: % F (Bioavailability of oral delivery)): 38%; half-life ([2]; male, Sprague Dawley, rat, plasma, PO, 10 mg/kg, read-out: Oral Administration (PO) T1/2 (converted)): 3.22 h; Tmax ([2]; male, Sprague Dawley, rat, plasma, PO, 10 mg/kg, read-out: Oral Administration (PO) Tmax): 0.667 h; LogD ([3]; 1-octanol/aqueous buffer, read-out: LogD): 2.08
Cc1cc(C(=O)N2CCC(O)CC2)ccc1-c1cncc(-c2ccnc(C(C)(C)C)c2)c1 [Compound Z-817]	100 to 1000	<100	<100	<100	5.24	3.11	1.41	13	3992	2.56	0.33	3.36							+ (>0.751 = +)	+ (>0.751 = +)	
